Marks after values point to notes of the source that are not given here. Where a SMILES comes first, the peptide text is derived from it. [ ]: non-standard residue; d: D form. Nle = CCCC[C@H](N)C(=O)O; βAla = NCCC(=O)O
Assays:
[1] = tested on: EGFR; test: EGFR tyrosine phosphorylation by western blot, NCI-H1299 cells transfected with BB2R; format: cell-based, human; conditions: for Effect of pretreatment on BA1-induced EGFR tyrosine phosphorylation: 10 µM pretreatment, then 100 nM BA1
Procedure: (§1) The tyrosine phosphorylation of the EGFR and ERK was investigated by western blot. NSCLC cells transfected with BB1R, BB2R, and BRS-3 were placed in 10 cm dishes. When the cells were confluent, they were placed in SIT medium (RPMI-1640 containing 3 × 10^−8 M sodium selenite, 5 µg/ml bovine insulin, and 10 µg/ml apo-transferrin; Sigma-Aldrich, St. Louis, MO, USA) for 3 h. […] Cell extracts were made as described previously ([16]), and 600 µg of protein extract was immunoprecipitated with 4 µg anti-phosphotyrosine antibody (Becton Dickenson, USA). The immunoprecipitates were fractionated using a 4–20% polyacrylamide gel (Novex, San Diego, CA, USA). Proteins were transferred to a nitrocellulose membrane and incubated with 2 µg anti-EGFR or anti-ERK antibody (Cell Signaling Technologies, Danvers, MA, USA). After washing the blot, it was incubated with enhanced chemiluminescence detection reagent (Thermo Scientific) for 5 min and exposed to Biomax XAR film (Carestream, Rochester, NY, USA). The band intensity was determined using a Kodak image station 440 densitometer. Alternatively, 20 µg of protein extract was loaded onto polyacrylamide gels and after transfer to nitrocellulose, the blot was probed with anti-PY^1,068-EGFR, anti-EGFR, anti-PY^204ERK, or anti-ERK (Cell Signaling Technologies, Danvers, MA, USA).

[2] = molecular target: T1, BRS-3 (Homo sapiens, UniProt P32247); test: Inhibition of specific 125I-BA1 binding to BRS-3-transfected NCI-H1299 cells; conditions: for Ki: inhibition of specific 125I-BA1 binding, BRS-3-transfected NCI-H1299 cells
T1 construct: expressed in transfected cells; host or cells: NCI-H1299
T1 sequence (P32247 1-399): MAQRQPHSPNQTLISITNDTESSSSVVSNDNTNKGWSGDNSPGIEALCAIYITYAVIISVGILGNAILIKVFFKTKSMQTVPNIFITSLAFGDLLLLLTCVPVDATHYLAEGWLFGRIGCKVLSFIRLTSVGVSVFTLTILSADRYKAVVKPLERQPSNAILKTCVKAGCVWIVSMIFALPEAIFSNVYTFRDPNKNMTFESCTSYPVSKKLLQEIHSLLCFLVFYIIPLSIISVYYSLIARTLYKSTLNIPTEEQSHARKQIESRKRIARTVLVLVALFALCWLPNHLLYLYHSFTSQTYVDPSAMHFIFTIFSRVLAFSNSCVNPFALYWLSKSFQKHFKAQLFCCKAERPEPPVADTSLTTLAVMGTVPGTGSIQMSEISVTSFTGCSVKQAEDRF
Procedure: (§2) Non-small cell lung cancer cell line NCI-H1299 (ATCC, Manassas, VA, USA) was stably transfected with BB1R, BB2R, and BRS-3. The transfected cells were grown in RPMI-1640 containing 10% fetal bovine serum (FBS) with 0.3 mg/ml geneticin (Invitrogen, Grand Island, NY, USA). The transfected cells, which contained approximately 100,000 receptors/cell, were weekly split using trypsin/EDTA ([13]). In addition, lung cancer cell lines NCI-H727, H1299, and H1975 were purchased from ATCC and cultured in RPMI-1640, which contained 10% FBS. The cell types were derived from different human biopsy specimens. These studies were approved by the NIDDK biospecimens and biosafety committees.
(§3) The ability of AM-37, ST-36, AM-13, and AM-14 to inhibit specific ^125I-BA1 binding to NSCLC cells transfected stably with BB1R, BB2R, and BRS-3 was investigated. NSCLC cells were placed in 24 well plates. When confluent, the cells were washed three times with PBS. The cells were incubated with binding buffer (PBS containing 0.25% bovine serum albumin and 0.025% bacitracin, Sigma-Aldrich, St. Louis, MO, USA). Various concentrations of AM-37, ST-36, AM-13, or AM-14 were added to the cells for 10 min, followed by 100,000 cpm of ^125I-BA1 (0.16 nM) and incubated at 37°C for 30 min when equilibrium of binding was reached. The cells were rinsed three times with binding buffer for 2 min at 4°C. The cells that contained bound peptide dissolved in 0.2 N NaOH and counted in a Wallac 1470 γ-counter. The Ki was calculated as described ([15]).

[3] = molecular target: T2, BB2R (Homo sapiens, UniProt P30550); test: Inhibition of specific 125I-BA1 binding to BB2R-transfected NCI-H1299 cells; conditions: for Ki: inhibition of specific 125I-BA1 binding, BB2R-transfected NCI-H1299 cells
T2 construct: expressed in transfected cells; host or cells: NCI-H1299
T2 sequence (P30550 whole entry): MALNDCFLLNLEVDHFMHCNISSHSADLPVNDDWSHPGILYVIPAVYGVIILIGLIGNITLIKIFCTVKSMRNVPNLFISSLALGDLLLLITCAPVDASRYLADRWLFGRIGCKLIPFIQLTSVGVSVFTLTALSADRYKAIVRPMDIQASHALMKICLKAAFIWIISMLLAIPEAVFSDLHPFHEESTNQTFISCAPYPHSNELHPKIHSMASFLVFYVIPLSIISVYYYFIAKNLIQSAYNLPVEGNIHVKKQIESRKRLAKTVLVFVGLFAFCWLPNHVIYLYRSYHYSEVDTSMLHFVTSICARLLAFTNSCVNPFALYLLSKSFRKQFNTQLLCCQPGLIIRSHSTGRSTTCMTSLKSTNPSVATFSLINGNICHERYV
Source text: Non-small cell lung cancer cell line NCI-H1299 (ATCC, Manassas, VA, USA) was stably transfected with BB1R, BB2R, and BRS-3. […] The transfected cells, which contained approximately 100,000 receptors/cell, were weekly split using trypsin/EDTA ([13]). […] The cell types were derived from different human biopsy specimens. These studies were approved by the NIDDK biospecimens and biosafety committees.
NSCLC cells were placed in 24 well plates. When confluent, the cells were washed three times with PBS. […] The cells were rinsed three times with binding buffer for 2 min at 4°C. […] The Ki was calculated as described ([15]).

[4] = molecular target: T2, BB2R; test: Cytosolic Ca2+ (Fura-2AM) in NCI-H1299 cells transfected with BB2R; format: cell-based; conditions: for Effect on the increase in cytosolic Ca2+ caused by BA1 / Effect on basal cytosolic Ca2+: 30 µM, BB2R-transfected cells
Procedure: as §2
(§4) The ability of AM-37, ST-36, AM-13, and AM-14 to function as BBR antagonists was investigated. NSCLC cells transfected with BB1R, BB2R, and BRS-3 were harvested and loaded with Fura-2AM (Calbiochem, La Jolla, CA, USA) as described previously ([16]). The excitation ratio was determined at 340 and 380 nm with an emission wavelength of 510 nm.

[5] = molecular target: T3, BB1R (Homo sapiens, UniProt P28336); test: Cytosolic Ca2+ (Fura-2AM) in NCI-H1299 cells transfected with BB1R; format: cell-based; conditions: for Effect on the increase in cytosolic Ca2+ caused by BA1 / Effect on basal cytosolic Ca2+: 30 µM, BB1R-transfected cells
T3 construct: expressed in transfected cells; host or cells: NCI-H1299
T3 sequence (P28336 whole entry): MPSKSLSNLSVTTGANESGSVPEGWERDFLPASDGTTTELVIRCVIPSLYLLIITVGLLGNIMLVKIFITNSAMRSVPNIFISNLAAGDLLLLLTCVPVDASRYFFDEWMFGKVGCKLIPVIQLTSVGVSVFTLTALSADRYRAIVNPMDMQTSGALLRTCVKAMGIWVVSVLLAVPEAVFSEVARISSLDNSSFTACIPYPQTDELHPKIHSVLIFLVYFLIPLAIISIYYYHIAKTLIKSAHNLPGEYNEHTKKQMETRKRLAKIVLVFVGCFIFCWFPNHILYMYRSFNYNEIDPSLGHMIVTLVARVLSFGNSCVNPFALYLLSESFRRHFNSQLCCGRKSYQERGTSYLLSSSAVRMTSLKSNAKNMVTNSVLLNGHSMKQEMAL
Procedure: as §2, §4

[6] = tested on: ERK; test: ERK tyrosine phosphorylation by western blot, NCI-H1299 cells transfected with BB2R; format: cell-based, human; conditions: for Effect of pretreatment on BA1-induced ERK tyrosine phosphorylation: 10 µM pretreatment, then 100 nM BA1
Procedure: as §1

[7] = molecular target: T3, BB1R; test: Inhibition of specific 125I-BA1 binding to BB1R-transfected NCI-H1299 cells
Procedure: as §2, §3

[8] = tested on: NSCLC cells; test: Ionomycin-induced cytosolic Ca2+ in NSCLC cells (specificity); format: cell-based, human; conditions: for Effect on the ability of ION to increase Ca2+: 5 µg/ml ionomycin
Procedure: as §4

[9] = molecular target: T1, BRS-3; test: Cytosolic Ca2+ (Fura-2AM) in NCI-H1299 cells transfected with BRS-3; format: cell-based; conditions: for Effect on the increase in cytosolic Ca2+ caused by BA1 / Effect on basal cytosolic Ca2+: 30 µM, BRS-3-transfected cells
Procedure: as §2, §4

[10] = tested on: NCI-H1299 cells; test: MTT proliferation assay, NCI-H1299; format: cell-based, human; conditions: for IC50: Homo sapiens, NCI-H1299, 48 h, MTT, 2 days, SIT medium
Procedure: The proliferation of NSCLC cells was investigated using the 3-(4,5-demethylthiazol-2-yl)-[…]-2H-tetrazolium bromide (MTT) assay as described previously ([16]). NCI-H727, H1299, and H1975 cells were placed in SIT medium and varying concentration of AM-37, ST-36, AM-13, or AM-14 added. After 2 days, 0.1% MTT solution (15 µl) was added. After 4 h, DMSO (150 µl) was added and the absorbance at 570 nm was determined.

[11] = molecular target: T4, NTR (Homo sapiens, UniProt P30989); test: Neurotensin-induced cytosolic Ca2+ in NSCLC cells (specificity); format: cell-based; conditions: 10 nM neurotensin
T4 construct: endogenous in cells; host or cells: NCI-H1299 (transfected with bombesin receptors)
T4 sequence (P30989 whole entry): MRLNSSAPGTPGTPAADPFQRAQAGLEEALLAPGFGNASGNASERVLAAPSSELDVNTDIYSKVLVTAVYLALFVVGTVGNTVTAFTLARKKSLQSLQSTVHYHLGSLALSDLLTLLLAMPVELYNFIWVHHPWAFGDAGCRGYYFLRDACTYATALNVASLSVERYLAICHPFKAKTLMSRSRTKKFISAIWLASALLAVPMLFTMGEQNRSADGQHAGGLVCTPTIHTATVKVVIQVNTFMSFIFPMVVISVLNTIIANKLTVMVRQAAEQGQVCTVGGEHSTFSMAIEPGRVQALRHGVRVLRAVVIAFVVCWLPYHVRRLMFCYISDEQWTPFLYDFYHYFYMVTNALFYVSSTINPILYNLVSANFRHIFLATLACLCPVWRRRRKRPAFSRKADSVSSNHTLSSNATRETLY

[12] = 30 µM small molecule followed by 10 nM BA1
[13] = 100 nM BA1, relative to control

COc1ccc(NC(=O)N[C@H](Cc2c[nH]c3ccccc23)C(=O)NCC2(c3ccc(F)cc3)CCCCC2)cc1 [AM-13, (R)-N-[[1-(4-fluorophenyl)cyclohexyl]methyl]-3-(1H-indol-3-yl)-2-[3-(4-methoxyphenyl)ureido]propanamide]
Effect of pretreatment on BA1-induced EGFR tyrosine phosphorylation [1]: BA1 increased strongly EGFR tyrosine phosphorylation
Ki [2]: > 100 µM
Ki [3]: 27 ± 4 µM
Increase in cytosolic Ca2+, BB2R [4, 12]: 5 ± 0.6^a nM
Increase in cytosolic Ca2+, BB1R [5, 12]: 7 ± 0.8^a nM
Effect of pretreatment on BA1-induced ERK tyrosine phosphorylation [6]: not
Ki [7]: > 100 µM
Effect on the ability of ION to increase Ca2+ [8]: no effect
Increase in cytosolic Ca2+, BRS-3 [9, 12]: 2 ± 0.3^a nM
Effect on the increase in cytosolic Ca2+ caused by BA1 ([9]; 10 nM BA1): partially blocked
Effect on basal cytosolic Ca2+ [9]: no effect

COc1ccc(NC(=O)N[C@@H](Cc2c[nH]c3ccccc23)C(=O)NCC2(c3ccc(F)cc3)CCCCC2)cc1 [AM-14]
IC50 [10]: > 50 µM
Effect of pretreatment on BA1-induced EGFR tyrosine phosphorylation [1]: little effect
Ki [2]: > 100 µM
Ki [3]: 45 ± 8 µM
Increase in cytosolic Ca2+, BB2R [4, 12]: 6 + 0.5^a nM
Effect on the increase in cytosolic Ca2+ caused by BA1 ([4]; 10 nM BA1): partially blocked
Effect on basal cytosolic Ca2+ [4]: no effect
Effect on the increase in cytosolic Ca2+ caused by BA1 ([5]; 10 nM BA1): partially blocked
Effect on basal cytosolic Ca2+ [5]: no effect
Effect of pretreatment on BA1-induced ERK tyrosine phosphorylation [6]: little effect
Ki [7]: > 100 µM
Effect on the ability of ION to increase Ca2+ [8]: no effect
Increase in cytosolic Ca2+, BRS-3 [9, 12]: 3 + 0.4^a nM

COc1ccc(NC(=O)N[C@H](Cc2c[nH]c3ccccc23)C(=O)NCC2(c3cccnc3)CCCCC2)cc1 [AM-37, (R)-3-(1H-indol-3-yl)-2-[3-(4-methoxyphenyl)ureido]-N-[[1-(3-pyridinyl)cyclohexyl]methyl]propanamide]
Effect on NCI-H1299 proliferation ([10]; 3 µM): little effect
Effect on NCI-H1299 proliferation ([10]; 30 µM): strongly inhibited
IC50 [10]: 16 µM
Effect on the ability of NT to increase cytosolic Ca2+ [11]: no effect
Effect of pretreatment on BA1-induced EGFR tyrosine phosphorylation [1]: addition of BA1 had little effect
Ki [2]: 5.5 ± 0.6 µM
Ki [3]: 1.4 ± 0.2 µM
Increase in cytosolic Ca2+, BB2R [4, 12]: 0^a nM
Increase in cytosolic Ca2+, BB1R [5, 12]: 1 ± 0.6^a nM
Effect on the increase in cytosolic Ca2+ caused by BA1 ([5]; 10 nM BA1): blocked
Effect on basal cytosolic Ca2+ [5]: no effect
Effect of pretreatment on BA1-induced ERK tyrosine phosphorylation [6]: decreased significantly
Ki [7]: 3.6 ± 0.5 µM
Increase in cytosolic Ca2+, BRS-3 [9, 12]: 0^a nM

CCCC[C@H](NC(=O)[C@H](Cc1ccccc1)NC(=O)[C@H](Cc1c[nH]cn1)NC(=O)CCNC(=O)[C@@H](NC(=O)[C@H](C)NC(=O)[C@H](Cc1c[nH]c2ccccc12)NC(=O)[C@H](CCC(N)=O)NC(=O)[C@H](N)Cc1ccc(O)cc1)C(C)C)C(N)=O [BA1, (D-Tyr^6, β-Ala^11, Phe^13, Nle^14)BB^6–14, reference compound] (H-[dY]QWAV[βAla]HF[Nle]-NH2; N-terminus and C-terminus assumed)
EGFR tyrosine phosphorylation [1, 13]: 326%
Cytosolic Ca2+ reached after BA1 ([4]; 10 nM BA1, from 160 nM, Figure 2D): 186 nM
Increase in cytosolic Ca2+, BB2R ([4]; BA1 10 nM alone): 26.3 ± 1.7 nM
Cytosolic Ca2+ reached after BA1 ([5]; 10 nM BA1, from 160 nM, within seconds, Figure 2A): 178 nM
Increase in cytosolic Ca2+, BB1R ([5]; BA1 10 nM alone): 18.5 ± 1.1 nM
ERK tyrosine phosphorylation [6, 13]: 277%
Cytosolic Ca2+ reached after BA1 ([9]; 10 nM BA1, from 170 nM, Figure 2G): 194 nM
Increase in cytosolic Ca2+, BRS-3 ([9]; BA1 10 nM alone): 24.4 ± 2.3 nM

COc1ccc(NC(=O)N[C@@H](Cc2c[nH]c3ccccc23)C(=O)NCC2(c3cccnc3)CCCCC2)cc1 [ST-36]
IC50 [10]: 22 µM
Effect on the ability of NT to increase cytosolic Ca2+ [11]: no effect
Effect of pretreatment on BA1-induced EGFR tyrosine phosphorylation [1]: addition of BA1 had little effect
IC50 [2]: 10.8 µM
Ki [2]: 10.8 ± 0.9 µM
IC50 [3]: 6.9 µM
Ki [3]: 6.9 ± 0.3 µM
Increase in cytosolic Ca2+, BB2R [4, 12]: 0^a nM
Effect on the increase in cytosolic Ca2+ caused by BA1 ([4]; 10 nM BA1): blocked
Effect on basal cytosolic Ca2+ [4]: no effect
Increase in cytosolic Ca2+, BB1R [5, 12]: 0^a nM
Effect of pretreatment on BA1-induced ERK tyrosine phosphorylation [6]: decreased significantly
Ki [7]: 7.9 ± 0.9 µM
Increase in cytosolic Ca2+, BRS-3 [9, 12]: 0^a nM
Effect on the increase in cytosolic Ca2+ caused by BA1 ([9]; 10 nM BA1): blocked
Effect on basal cytosolic Ca2+ [9]: no effect

C[C@H](CCC(=O)O)C[C@H](C)C[C@H](C)C(=O)/C=C(\O)[C@H](C)C[C@H](C)C/C=C/[C@@H](C)[C@@H](O)[C@@H](C)[C@@H](O)C[C@@H]1CC[C@@](C)([C@H]2CC[C@@](C)([C@@H](C)O)O2)O1 [ionomycin, reference compound]
Effect on cytosolic Ca2+ ([8]; 5 µg/ml): strongly increased
